Experimental data: patent US20250179114A1, “Anti-Inflammatory Compound and Use Thereof” (DUALITY BIOLOGICS (SUZHOU) CO., LTD., priority 2021, published 2025)

Tests used:
GR = target: T1, GR (Homo sapiens, UniProt P04150); assay: GR luciferase reporter gene elution experiment; assay type: cell-based; conditions: supernatant removed and washed, then 24 h; for Elution time (Act %) 15 min: incubation 15 min; for Elution time (Act %) 30 min: incubation 30 min; for Elution time (Act %) 1 h: incubation 1 h; for Elution time (Act %) 2 h: incubation 2 h; for Elution time (Act %) 4 h: incubation 4 h
T1 construct: host or cells: HEK293
T1 sequence (P04150 1-777): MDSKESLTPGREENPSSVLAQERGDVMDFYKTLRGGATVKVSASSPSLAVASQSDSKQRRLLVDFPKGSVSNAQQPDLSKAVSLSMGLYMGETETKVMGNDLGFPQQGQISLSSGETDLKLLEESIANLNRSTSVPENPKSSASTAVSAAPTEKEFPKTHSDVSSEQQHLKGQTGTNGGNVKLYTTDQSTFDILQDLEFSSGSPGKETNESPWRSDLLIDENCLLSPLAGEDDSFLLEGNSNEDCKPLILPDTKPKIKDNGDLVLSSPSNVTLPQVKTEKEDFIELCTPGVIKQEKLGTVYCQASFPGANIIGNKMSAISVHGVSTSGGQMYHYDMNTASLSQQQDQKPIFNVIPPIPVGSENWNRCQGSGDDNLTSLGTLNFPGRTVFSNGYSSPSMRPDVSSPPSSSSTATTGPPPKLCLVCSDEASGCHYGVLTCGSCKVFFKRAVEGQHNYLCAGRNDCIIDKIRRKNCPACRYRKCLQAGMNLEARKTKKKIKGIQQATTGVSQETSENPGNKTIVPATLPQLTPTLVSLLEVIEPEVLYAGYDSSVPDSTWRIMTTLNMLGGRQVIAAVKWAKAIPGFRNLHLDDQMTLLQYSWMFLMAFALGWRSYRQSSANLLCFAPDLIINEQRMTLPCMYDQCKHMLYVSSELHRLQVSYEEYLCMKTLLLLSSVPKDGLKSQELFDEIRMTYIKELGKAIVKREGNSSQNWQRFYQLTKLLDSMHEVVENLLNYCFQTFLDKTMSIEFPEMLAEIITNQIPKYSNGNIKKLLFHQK
Protocol: The compounds of the present application were evaluated for their ability to continue activation upon binding to GR.
(§1) HEK293 cells were cultured in DMEM+10% FBS medium in a carbon dioxide incubator humidified at 37° C. with 5% carbon dioxide.
• 1) HEK293 cells were digested with trypsin, and the HEK293 cell resuspension was adjusted to 200,000 cell/mL in medium (96 well plate: 100 μL/well). • 2) Transfection reagent mixtures were prepared according to the table below, mixed well and left to stand at room temperature for 20 min.
• 3) The prepared transfection mixtures were added to 10 mL of the cell density-adjusted resuspension, mixed well by turning the mixtures upside down, and seeded into a 96-well plate at a volume of 100 μL/well. • 4) The 96-well plate was incubated in a humidified incubator at 37° C. with 5% carbon dioxide for 24 h.
(§2) The test plate was detected using the Dual-Glo Luciferase Assay System kit from Promega, and the fluorescence signal of Firefly Luciferase and the fluorescence signal of Renilla Luciferase were read using Enspire, respectively.
5. Data Processing • 1) The final measurement value was a normalized value “F/R” obtained by dividing the Firefly Luciferase fluorescent signal by the Renilla Luciferase fluorescent signal. • 2) The data were copied and pasted into Excel, and the activation rate was obtained through an equation.
[formula] • 3) The data were imported into MS Excel and subjected to curve fitting by using XLFit excel add-in version 5.4.0.8 to obtain an EC50 value.
(§3) Y is the agonism and X is the concentration of the compound.

DBA/1J mice = assay: Bovine type II collagen mixed adjuvant-induced DBA/1 mouse arthritis (CIA) model; assay type: in vivo; conditions: Table 10-2; 0.2 mg/kg p.o.; mean
Protocol: Example 6: Assay of Biological Activity of Bovine Type II Collagen Mixed Adjuvant-Induced DBA/1 Mouse Arthritis Model
The potency of the ligand-drug conjugates (ADCs) of the present application was evaluated in a bovine collagen-induced arthritis (CIA) model.
Male DBA/1J mice were obtained from Jackson Labs. The mice were used at 6-8 weeks of age. All animals were given ad libitum access to food and water under a 12-hour light/dark cycle at constant temperature and humidity.
Bovine collagen (Chondrex, Inc. Cat: 20021) was dissolved in 0.1 M acetic acid and stored overnight in a 2-8 C refrigerator at a collagen concentration of 8 mg/mL, and an equal volume of CFA (complete Freund's adjuvant, Difco, Laurence, KS) was added into the collagen solution and emulsified in a high speed homogenizer to make an emulsion. On Day 0, animals in need of immunization were anesthetized with 2%-5% isoflurane and male DBA/J mice were immunized once with a single subcutaneous injection of 50 μL collagen/CFA emulsion at the tail root of 2-3 cm from the body. Three weeks later, namely on Day 21, the tail root was immunized twice with the same volume of collagen emulsion by the same injection method. After the second immunization, 120 animals with an average score of about 2 for the limb arthritis were selected and randomly grouped. The animals were treated by a single intraperitoneal injection of test reagent according to the experimental design after grouping. For the dexamethasone (Sphsine) treatment group, the drug was administered the day after grouping until the end of the trial. The extremities of each group were observed twice weekly for the onset of arthritis from the time of the second immunization, and the observation was continued until the end of the trial.
Scoring according to the degree of lesion (redness and swelling) was performed on a scale of 0-4 points, with a maximum score of 4 for each limb and a total maximum score of 16 for each animal's limbs. The scoring criteria are as follows: 0 points, no redness and swelling; 1 point, 1-2 red and swollen interphalangeal joints; 2 points, 3-4 red and swollen interphalangeal joints; 3 points, more than 4 red and swollen interphalangeal joints; 4 points, severe redness and swelling in toes or fingers to ankle joints or wrist joints. For joint swelling, ankle thickness of hind paw of each animal was measured with a screw micrometer before one immunization. Since the second immunization, measurements were performed 2 times per week, and changes in ankle thickness before and after the immunization were compared. After the trial was completed, all animals were anesthetized with 2-5% isoflurane and then euthanized by exsanguination.
Score AUC: area under the curve for arthritis score. The results are shown in Tables 10-1 and 10-2 and FIGS. 3a-3c.

glucocorticoid receptor = target: T2, glucocorticoid receptor (Homo sapiens, UniProt P04150); assay: Activity assay of glucocorticoid receptor reporter gene GRE; assay type: cell-based; conditions: HEK293 cells transfected with pGL5 and pBIND-GR; 24 h; Dual-Glo luciferase
T2 construct: host or cells: HEK293
T2 sequence (P04150 1-777): T1 sequence (P04150 1-777)
Protocol: as §1
HEK293 cells were digested with trypsin, and the HEK293 cell resuspension was adjusted to 200,000 cell/mL in medium (96 well plate: 100 μL/well).
Transfection reagent mixtures were prepared according to Tables 5a and 5b below, mixed well and left to stand at room temperature for 20 min.
The prepared transfection mixtures were added to 10 mL of the cell density-adjusted resuspension, mixed well by turning the mixtures upside down, and seeded into a 96-well plate at a volume of 100 μL/well.
The 96-well plate was incubated in a humidified incubator at 37° C. with 5% carbon dioxide for 24 h.
The test plate was placed back into the incubator and incubated for 24 h.
as §2
The final measurement value was a normalized value “F/R” obtained by dividing the Firefly Luciferase fluorescent signal by the Renilla Luciferase fluorescent signal.
The data were copied and pasted into Excel, and the activation rate was obtained through an equation.
The data were imported into MS Excel and subjected to curve fitting by using XLFit excel add-in version 5.4.0.8 to obtain an EC50 value.
as §3

SMILES | Elution time (Act %) 15 min (GR) [%] | Elution time (Act %) 30 min (GR) [%] | Elution time (Act %) 1 h (GR) [%] | Elution time (Act %) 2 h (GR) [%] | Elution time (Act %) 4 h (GR) [%] | Arthritis score AUC (area under the curve for arthritis score) (DBA/1J mice) | Arthritis score D 0 (DBA/1J mice) | Arthritis score D 21 (DBA/1J mice) | Arthritis score D 24 (DBA/1J mice) | Arthritis score D 28 (DBA/1J mice) | Arthritis score D 31 (DBA/1J mice) | Arthritis score D 35 (DBA/1J mice) | Arthritis score Day 38 (DBA/1J mice) | Arthritis score Day 42 (DBA/1J mice) | Arthritis score Day 45 (DBA/1J mice) | Arthritis score Day 49 (DBA/1J mice) | Arthritis score Day 52 (DBA/1J mice) | Arthritis score Day 56 (DBA/1J mice) | EC50 (glucocorticoid receptor) [nM]
C[C@@H]1C[C@H]2[C@@H]3CCC4=CC(=O)C=C[C@]4(C)[C@@]3(F)[C@@H](O)C[C@]2(C)[C@@]1(O)C(=O)CO [Dexamethasone, dexamethasone] | 9.4 | 10.0 | 7.2 | 6.2 | 31.9 | 24.50 | 0.00 | 0.00 | 0.00 | 0.00 | 2.10 | 2.90 | 1.30 | 0.50 | 0.20 | 0.00 | 0.00 | 0.00 | 
C[C@]12C=CC(=O)C=C1CC[C@H]1[C@@H]3C[C@H]4O[C@@H](c5ccc(Cc6ccc(N)cc6)s5)O[C@@]4(C(=O)CO)[C@@]3(C)C[C@H](O)[C@@]12F [Compound 17] | 1.7 | 0.7 | 1.3 | 2.9 | 9.7 |  |  |  |  |  |  |  |  |  |  |  |  |  | 0.33
